For series [1], the system named is transporters at major organ sites. The series is described as follows: Prediction of transporter-mediated inhibition / DDI potential. The arrangement: species or system human. The conditions noted are these: of 11 transporters; FDA criteria.
For a further series, the target named is T1, human OATP1B1 (Homo sapiens, UniProt Q9Y6L6).
T1 sequence (Q9Y6L6 1-691): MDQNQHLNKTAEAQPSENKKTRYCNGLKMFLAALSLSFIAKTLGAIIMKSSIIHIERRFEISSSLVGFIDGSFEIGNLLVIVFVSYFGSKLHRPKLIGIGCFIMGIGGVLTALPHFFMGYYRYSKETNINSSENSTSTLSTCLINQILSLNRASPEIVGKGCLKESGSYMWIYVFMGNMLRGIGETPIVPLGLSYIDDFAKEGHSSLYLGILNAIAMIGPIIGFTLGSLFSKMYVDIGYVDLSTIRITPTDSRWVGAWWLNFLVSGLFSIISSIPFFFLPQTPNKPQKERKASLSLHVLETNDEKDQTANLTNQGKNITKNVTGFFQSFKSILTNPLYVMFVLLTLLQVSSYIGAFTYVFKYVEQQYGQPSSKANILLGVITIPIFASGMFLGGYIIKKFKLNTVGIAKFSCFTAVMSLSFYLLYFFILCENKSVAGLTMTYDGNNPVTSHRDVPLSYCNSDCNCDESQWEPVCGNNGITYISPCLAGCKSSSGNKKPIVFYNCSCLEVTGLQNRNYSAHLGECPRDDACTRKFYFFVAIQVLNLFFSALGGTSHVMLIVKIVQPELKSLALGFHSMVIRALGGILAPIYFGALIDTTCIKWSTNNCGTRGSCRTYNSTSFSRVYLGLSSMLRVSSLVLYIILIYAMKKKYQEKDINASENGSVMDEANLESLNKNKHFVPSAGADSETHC
The conditions noted are these: for potency difference of the inhibitor for [3H]-EG vs [3H]-ES as OATP1B1 probes: inhibits EG at one-tenth (or lower) the concentration that inhibits ES.

Another series concerns the target human MATE2 (Homo sapiens, UniProt Q86VL8). Put plainly: cell-based.
In the next series the target is T2, human MATE1 (Homo sapiens, UniProt Q96FL8).
T2 sequence (Q96FL8 1-570): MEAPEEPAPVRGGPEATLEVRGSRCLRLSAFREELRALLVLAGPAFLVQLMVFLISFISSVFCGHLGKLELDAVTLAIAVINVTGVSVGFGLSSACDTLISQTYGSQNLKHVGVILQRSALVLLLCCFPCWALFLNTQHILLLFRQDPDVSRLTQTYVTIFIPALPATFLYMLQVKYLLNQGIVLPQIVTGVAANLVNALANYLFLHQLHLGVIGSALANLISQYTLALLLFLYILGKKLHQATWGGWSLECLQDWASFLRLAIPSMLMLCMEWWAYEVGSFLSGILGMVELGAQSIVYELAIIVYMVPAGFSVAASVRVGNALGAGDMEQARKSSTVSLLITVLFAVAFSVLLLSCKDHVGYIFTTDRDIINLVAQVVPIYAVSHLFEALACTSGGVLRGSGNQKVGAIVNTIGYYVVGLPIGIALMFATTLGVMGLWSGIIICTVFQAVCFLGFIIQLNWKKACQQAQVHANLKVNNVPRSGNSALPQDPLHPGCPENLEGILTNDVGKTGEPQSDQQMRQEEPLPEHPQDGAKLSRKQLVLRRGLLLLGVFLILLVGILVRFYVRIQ

For a further series, the target named is T3, human OCT1 (Homo sapiens, UniProt O15245).
T3 sequence (O15245 1-554): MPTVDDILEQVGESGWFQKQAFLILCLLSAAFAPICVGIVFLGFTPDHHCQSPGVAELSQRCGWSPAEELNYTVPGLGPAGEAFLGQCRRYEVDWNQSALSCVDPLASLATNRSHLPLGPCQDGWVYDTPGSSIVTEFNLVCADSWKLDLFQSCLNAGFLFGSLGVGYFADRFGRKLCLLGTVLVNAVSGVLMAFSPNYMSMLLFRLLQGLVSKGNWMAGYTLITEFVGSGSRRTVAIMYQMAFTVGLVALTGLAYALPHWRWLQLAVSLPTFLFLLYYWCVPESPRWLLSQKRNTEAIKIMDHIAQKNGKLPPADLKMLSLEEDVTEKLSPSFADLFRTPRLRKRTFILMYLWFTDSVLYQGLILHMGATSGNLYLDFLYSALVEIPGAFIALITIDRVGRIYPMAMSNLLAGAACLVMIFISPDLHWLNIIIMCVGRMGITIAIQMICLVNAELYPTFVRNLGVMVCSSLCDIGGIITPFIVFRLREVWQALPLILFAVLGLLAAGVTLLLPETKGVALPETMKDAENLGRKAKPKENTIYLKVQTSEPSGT
The series is described as follows: cell-based.

A further series concerns the target T4, human OCT2 (Homo sapiens, UniProt O15244).
T4 sequence (O15244 1-555): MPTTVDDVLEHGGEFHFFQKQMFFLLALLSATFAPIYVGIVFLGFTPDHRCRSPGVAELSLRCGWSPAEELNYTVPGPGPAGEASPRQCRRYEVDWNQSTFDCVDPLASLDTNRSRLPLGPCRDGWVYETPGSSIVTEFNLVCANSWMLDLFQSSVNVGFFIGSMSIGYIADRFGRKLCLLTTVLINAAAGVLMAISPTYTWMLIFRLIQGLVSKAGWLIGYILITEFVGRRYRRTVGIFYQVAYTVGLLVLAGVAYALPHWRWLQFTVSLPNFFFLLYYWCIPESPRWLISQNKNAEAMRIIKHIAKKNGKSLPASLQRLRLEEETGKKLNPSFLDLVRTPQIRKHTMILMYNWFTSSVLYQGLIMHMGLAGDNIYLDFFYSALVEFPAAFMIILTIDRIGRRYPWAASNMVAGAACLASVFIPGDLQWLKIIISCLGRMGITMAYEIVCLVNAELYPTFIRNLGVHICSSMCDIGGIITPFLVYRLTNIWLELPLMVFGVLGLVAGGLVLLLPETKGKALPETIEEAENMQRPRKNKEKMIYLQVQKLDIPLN
The series is described as follows: cell-based. The conditions noted are these: IC50 OCT2, experimental, mean ± SD; substrate metformin.

The term IC50 denotes the midpoint of a concentration-inhibition curve.

A value given as a limit tells only on which side of the number the result lay.

Sequence of human MATE2 (Q86VL8 1-566 isoform Q86VL8-3): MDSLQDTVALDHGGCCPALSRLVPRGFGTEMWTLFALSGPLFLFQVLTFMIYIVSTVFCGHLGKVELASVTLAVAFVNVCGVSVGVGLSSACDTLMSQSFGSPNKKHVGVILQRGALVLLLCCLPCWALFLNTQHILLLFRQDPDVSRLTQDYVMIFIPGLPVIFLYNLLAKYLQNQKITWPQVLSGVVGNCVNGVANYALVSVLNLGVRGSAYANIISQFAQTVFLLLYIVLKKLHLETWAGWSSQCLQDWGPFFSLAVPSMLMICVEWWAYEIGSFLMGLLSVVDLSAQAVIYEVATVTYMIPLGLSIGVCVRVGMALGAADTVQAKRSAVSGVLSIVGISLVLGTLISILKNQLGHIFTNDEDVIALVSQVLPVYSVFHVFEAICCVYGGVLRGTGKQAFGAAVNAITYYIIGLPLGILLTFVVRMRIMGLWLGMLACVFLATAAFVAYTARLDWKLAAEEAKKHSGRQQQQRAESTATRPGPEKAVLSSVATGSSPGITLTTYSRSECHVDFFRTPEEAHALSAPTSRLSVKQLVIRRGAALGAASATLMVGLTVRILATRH

As for `CC(C)CN(C[C@@H](O)[C@H](Cc1ccccc1)NC(=O)O[C@H]1CO[C@H]2OCC[C@H]21)S(=O)(=O)c1ccc(N)cc1` [Darunavir], in series [1], the “No. of transporters at major organ sites inhibited at clinical concentrations” value is given as 5. In addition, the “potency difference of the inhibitor for [3H]-EG vs [3H]-ES as OATP1B1 probes” value on human OATP1B1 is greater than 10 fold. The compound further came in with an IC50 on human MATE2 of 30.7 ± 20.2 µM.

Consider `N#CC[C@H](C1CCCC1)n1cc(-c2ncnc3[nH]ccc23)cn1` [Ruxolitinib], for which the “No. of transporters at major organ sites inhibited at clinical concentrations” value in series [1] is recorded as 1. Further, the “Cu,max/IC50 MATE1” value on human MATE1 worked out at 0.04. Further, the IC50 was 9.7 ± 4.3 µM at human OCT1, 10.7 ± 3.7 µM against human OCT2 and 3.7 ± 2.3 µM against human MATE2.

In the case of `CCCc1nn(C)c2c(=O)[nH]c(-c3cc(S(=O)(=O)N4CCN(C)CC4)ccc3OCC)nc12` [Sildenafil], the “No. of transporters at major organ sites inhibited at clinical concentrations” value in series [1] was 4. Moreover, the “Cu,max/IC50 MATE1” value on human MATE1 came out at 0.02. Besides, the IC50 at human OCT1 is 19.8 ± 6.4 µM; on human OCT2, 68 ± 20.1 µM; against human MATE2, 14.4 ± 1.3 µM.

In the case of `CCOC(=O)c1c(CSc2ccccc2)n(C)c2cc(Br)c(O)c(CN(C)C)c12` [Umifenovir (Arbidol), Umifenovir], in series [1], the “No. of transporters at major organ sites inhibited at clinical concentrations” value is given as 6. Moreover, on human OATP1B1 (human), the “Iu,in,max/IC50 OATP1B1” value was determined as 0.93. Also, the “Cu,max/IC50 MATE1” value on human MATE1 turned out to be 0.13. The IC50 turned out to be 1.2 ± 0.1 µM against human OCT1, 14.9 ± 4.9 µM against human OCT2 and 4.1 ± 1.6 µM on human MATE2.

Turning to `CCC(CC)COC(=O)[C@H](C)N[P@](=O)(OC[C@H]1O[C@@](C#N)(c2ccc3c(N)ncnn23)[C@H](O)[C@@H]1O)Oc1ccccc1` [Remdesivir], the “No. of transporters at major organ sites inhibited at clinical concentrations” value in series [1] is 4. Moreover, the “potency difference of the inhibitor for [3H]-EG vs [3H]-ES as OATP1B1 probes” value on human OATP1B1 is greater than 10 fold. Moreover, the IC50 on human OCT1 was found to be 10.1 ± 0.01 µM; against human MATE2, 15.2 ± 9.7 µM.

(Values after paper PMC8217266 (Clinical Pharmacology and Therapeutics, 2021).)
